Test results as given in patent US20140296212A1, “SUBSTITUTED PHENOXYPROPYLCYCLOAMINE DERIVATIVES AS HISTAMINE-3 (H3) RECEPTOR LIGANDS” (CEPHALON, INC., priority 2009, published 2014).

Tests used:
[1] = target: T1, rat histamine H3 receptor (Rattus norvegicus, UniProt Q9QYN8); assay: Rat H3 radioligand binding ([3H]-N-alpha-methylhistamine, SPA); details: membranes of CHO-A3 cells expressing rat H3; [3H]-N-alpha-methylhistamine; read-out: Rat H3 Ki
T1 construct: encoding the entire 445-amino-acid rat histamine H3 receptor; expressed in transfected cells
In short: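 Membranes from CHO-A3 cells stably expressing full-length rat H3 receptor (445 aa) incubated with ~1 nM [3H]-N-alpha-methylhistamine and compound (0.01 nM–30 μM) in 50 mM Tris HCl pH 7.4, 5 mM MgCl2, 0.1% BSA, 4 h, room temperature; SPA bead read-out. Non-specific binding defined with 10 μM clobenpropit.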

human H3 receptor = target: T2, human H3 receptor (Homo sapiens, UniProt Q9Y5N1); assay: Human H3 radioligand binding ([3H]-N-alpha-methylhistamine, SPA); details: membranes of CHO cells expressing human H3
T2 construct: expressed in transfected cells
In short: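 Membranes from H3-expressing cells (10 μg protein/well) in 50 mM Tris HCl pH 7.4, 5 mM MgCl2, 0.1% BSA with ~1 nM [3H]-N-alpha-methylhistamine and compound (0.01 nM–30 μM), SPA beads, 4 h, room temperature, dark. Non-specific binding defined with 10 μM clobenpropit; bound radioligand read by scintillation counting.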

T2 sequence (Q9Y5N1 whole entry): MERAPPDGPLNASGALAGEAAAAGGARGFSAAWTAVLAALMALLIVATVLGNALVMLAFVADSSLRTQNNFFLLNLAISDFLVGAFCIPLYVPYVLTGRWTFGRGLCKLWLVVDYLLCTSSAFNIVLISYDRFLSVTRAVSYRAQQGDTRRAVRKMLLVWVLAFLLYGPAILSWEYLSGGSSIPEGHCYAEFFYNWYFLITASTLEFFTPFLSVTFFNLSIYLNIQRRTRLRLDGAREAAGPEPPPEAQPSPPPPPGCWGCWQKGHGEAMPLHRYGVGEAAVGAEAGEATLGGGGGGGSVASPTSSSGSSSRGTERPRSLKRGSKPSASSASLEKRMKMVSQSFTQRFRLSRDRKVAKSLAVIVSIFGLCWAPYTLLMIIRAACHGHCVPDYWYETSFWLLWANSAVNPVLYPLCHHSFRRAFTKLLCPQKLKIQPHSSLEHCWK
T1 sequence (Q9QYN8 whole entry): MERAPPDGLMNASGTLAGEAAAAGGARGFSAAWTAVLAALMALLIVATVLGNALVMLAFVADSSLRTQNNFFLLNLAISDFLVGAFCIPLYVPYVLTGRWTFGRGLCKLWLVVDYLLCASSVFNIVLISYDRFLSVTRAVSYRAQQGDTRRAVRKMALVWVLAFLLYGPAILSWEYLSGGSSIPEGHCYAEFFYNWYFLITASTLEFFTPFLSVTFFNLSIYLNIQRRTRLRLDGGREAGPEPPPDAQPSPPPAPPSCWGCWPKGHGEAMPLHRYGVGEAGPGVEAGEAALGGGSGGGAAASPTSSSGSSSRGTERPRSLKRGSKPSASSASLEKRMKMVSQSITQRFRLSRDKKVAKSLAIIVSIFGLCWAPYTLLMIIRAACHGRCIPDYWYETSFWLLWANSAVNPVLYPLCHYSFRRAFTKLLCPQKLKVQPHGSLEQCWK

Structure (SMILES) | Ki [1] [µM] | Ki (human H3 receptor) [µM] | melting point
C[C@@H]1CCCN1CCCOc1ccc(C(=O)CN2CCN(C(=O)C3CCCO3)CC2)cc1 (stereo partly drawn) [Example 83, 1-{4-[3-((R)-2-Methyl-pyrrolidin-1-yl)-propoxy]-phenyl}-2-[4-(tetrahydro-furan-2-carbonyl)-piperazin-1-yl]-ethanone] | 0.0001 to 0.1 | 0.0001 to 0.1 | 185 to 190 °C
C[C@@H]1CCCN1CCCOc1ccc(C(=O)CN2CCN(C(=O)c3cccn3C)CC2)cc1 [Example 84, 2-[4-(1-Methyl-1H-pyrrole-2-carbonyl)-piperazin-1-yl]-1-{4-[3-((R)-2-methyl-pyrrolidin-1-yl)-propoxy]-phenyl}-ethanone] | 0.0001 to 0.1 | 0.0001 to 0.1 | 221 to 224 °C
C[C@@H]1CCCN1CCCOc1ccc(C(=O)CN2CCNC(=O)C2)cc1 [Example 85, 4-(2-{4-[3-((R)-2-Methyl-pyrrolidin-1-yl)-propoxy]-phenyl}-2-oxo-ethyl)-piperazin-2-one] | 0.0001 to 0.1 | 0.0001 to 0.1 | 137 to 145 °C
CC1(C)CCCN1CCCOc1ccc(C(=O)CN2CCOCC2)cc1 [Example 88, 1-{4-[3-(2,2-Dimethyl-pyrrolidin-1-yl)-propoxy]-phenyl}-2-morpholin-4-yl-ethanone] | > 1 | > 1 | 117 to 120 °C
C[C@@H]1CCCN1CCCOc1ccc(C(=O)CN2CCN(C(=O)C3CC3)CC2)cc1 [Example 89, 2-(4-Cyclopropanecarbonyl-piperazin-1-yl)-1-{4-[3-((R)-2-methyl-pyrrolidin-1-yl)-propoxy]-phenyl}-ethanone] | 0.0001 to 0.1 | 0.0001 to 0.1 | 202 to 204 °C
C[C@@H]1CCCN1CCCOc1ccc(C(=O)CN2CCN(c3ncccn3)CC2)cc1 [Example 90, 1-{4-[3-((R)-2-Methyl-pyrrolidin-1-yl)-propoxy]-phenyl}-2-(4-pyrimidin-2-yl-piperazin-1-yl)-ethanone] | 0.0001 to 0.1 | 0.0001 to 0.1 | 112 to 114 °C
C[C@@H]1CCCN1CCCOc1ccc(C(=O)CN2CCN(c3ccccc3)CC2)cc1 [Example 91, 1-{4-[3-((R)-2-Methyl-pyrrolidin-1-yl)-propoxy]-phenyl}-2-(4-phenyl-piperazin-1-yl)-ethanone] | 0.0001 to 0.1 | 0.0001 to 0.1 | 145 to 150 °C
C[C@@H]1CCCN1CCCOc1ccc(C(=O)CN2CCN(C(=O)c3ccc(C(F)(F)F)cc3)CC2)cc1 [Example 92, 1-{4-[3-((R)-2-Methyl-pyrrolidin-1-yl)-propoxy]-phenyl}-2-[4-(4-trifluoromethyl-benzoyl)-piperazin-1-yl]-ethanone] | 0.0001 to 0.1 | 0.0001 to 0.1 | 227 to 230 °C
C[C@@H]1CCCN1CCCOc1ccc(C(=O)CN2CCN(C(=O)C3CCCCC3)CC2)cc1 [Example 93, 2-(4-Cyclohexanecarbonyl-piperazin-1-yl)-1-{4-[3-((R)-2-methyl-pyrrolidin-1-yl)-propoxy]-phenyl}-ethanone] | 0.0001 to 0.1 | 0.0001 to 0.1 | 230 to 232 °C
C[C@@H]1CCCN1CCCOc1ccc(C(=O)CN2CCN(c3ccc(F)cc3)CC2)cc1 [Example 94, 2-[4-(4-Fluoro-phenyl)-piperazin-1-yl]-1-{4-[3-((R)-2-methyl-pyrrolidin-1-yl)-propoxy]-phenyl}-ethanone] | 0.0001 to 0.1 | 0.0001 to 0.1 | 140 to 145 °C
Cc1cc(C(=O)CN2CCC(F)(F)CC2)cc(C)c1OCCCN1CCC[C@H]1C [Example 95, 2-(4,4-Difluoro-piperidin-1-yl)-1-{3,5-dimethyl-4-[3-((R)-2-methyl-pyrrolidin-1-yl)-propoxy]-phenyl}-ethanone] | > 1 | 0.101 to 0.5 | 140 to 142 °C
C[C@@H]1CCCN1CCCOc1c(Cl)cc(C(=O)CN2CCN(C(=O)c3ccccc3)CC2)cc1Cl [Example 96, 2-(4-Benzoyl-piperazin-1-yl)-1-{3,5-dichloro-4-[3-((R)-2-methyl-pyrrolidin-1-yl)-propoxy]-phenyl}-ethanone] | 0.101 to 0.5 | 0.0001 to 0.1 | 111 °C
CC(=O)N1CCN(CC(=O)c2cc(C)c(OCCCN3CCC[C@H]3C)c(C)c2)CC1 [Example 97, 2-(4-Acetyl-piperazin-1-yl)-1-{3,5-dimethyl-4-[3-((R)-2-methyl-pyrrolidin-1-yl)-propoxy]-phenyl}-ethanone] | 0.501 to 1 | 0.101 to 0.5 | 118 to 119 °C
C[C@@H]1CCCN1CCCOc1c(Cl)cc(C(=O)CN2CCC(F)(F)CC2)cc1Cl [Example 98, 1-{3,5-Dichloro-4-[3-((R)-2-methyl-pyrrolidin-1-yl)-propoxy]-phenyl}-2-(4,4-difluoro-piperidin-1-yl)-ethanone] | > 1 | 0.0001 to 0.1 | 102 °C
C[C@@H]1CCCN1CCCOc1c(Cl)cc(C(=O)CN2CCN(C(=O)C3CCCCC3)CC2)cc1Cl [Example 99, 2-(4-Cyclohexanecarbonyl-piperazin-1-yl)-1-{3,5-dichloro-4-[3-((R)-2-methyl-pyrrolidin-1-yl)-propoxy]-phenyl}-ethanone] | 0.101 to 0.5 | 0.0001 to 0.1 | 168 °C
C[C@@H]1CCCN1CCCOc1ccc(C(=O)CN2CCN(C(=O)c3ccc(Cl)cc3)CC2)cc1 [Example 100, 2-[4-(4-Chloro-benzoyl)-piperazin-1-yl]-1-{4-[3-((R)-2-methyl-pyrrolidin-1-yl)-propoxy]-phenyl}-ethanone] | 0.0001 to 0.1 | 0.0001 to 0.1 | 233 to 236 °C
C[C@@H]1CCCN1CCCOc1ccc(C(=O)CN2CCN(C(=O)c3ccc(F)cc3)CC2)cc1 [Example 101, 2-[4-(4-Fluoro-benzoyl)-piperazin-1-yl]-1-{4-[3-((R)-2-methyl-pyrrolidin-1-yl)-propoxy]-phenyl}-ethanone] | 0.0001 to 0.1 | 0.0001 to 0.1 | 225 to 229 °C
C[C@@H]1CCCN1CCCOc1c(Cl)cc(C(=O)CN2CCN(c3ccccc3)CC2)cc1Cl [Example 102] | > 1 | 0.101 to 0.5 | 168 °C
Cc1cc(C(=O)CN2CCN(c3ncccn3)CC2)cc(C)c1OCCCN1CCC[C@H]1C [Example 104, 1-{3,5-Dimethyl-4-[3-((R)-2-methyl-pyrrolidin-1-yl)-propoxy]-phenyl}-2-(4-pyrimidin-2-yl-piperazin-1-yl)-ethanone] | 0.501 to 1 | 0.101 to 0.5 | 155 to 160 °C (dec.)
C[C@@H]1CCCN1CCCOc1ccc(C(=O)CN2CCN(c3ccc(C(F)(F)F)cc3)CC2)cc1 [Example 105, 1-{4-[3-((R)-2-Methyl-pyrrolidin-1-yl)-propoxy]-phenyl}-2-[4-(4-trifluoromethyl-phenyl)-piperazin-1-yl]-ethanone] | 0.0001 to 0.1 | 0.0001 to 0.1 | 230 to 233 °C
Cc1cc(C(=O)CN2CCN(C(=O)c3ccccc3)CC2)cc(C)c1OCCCN1CCC[C@H]1C [Example 106, 2-(4-Benzoyl-piperazin-1-yl)-1-{3,5-dimethyl-4-[3-((R)-2-methyl-pyrrolidin-1-yl)-propoxy]-phenyl}-ethanone] | 0.101 to 0.5 | 0.0001 to 0.1 | 110 to 120 °C
